According to patent US5776955A, “Use of unsubstituted and substituted n-(pyrrol-1-yl)pyridinamines as anticonvulsant agents” (Hoechst Marion Roussel, Inc., priority 1996, dated 1998):

Legend:
mice = assay: Supramaximal electroshock in mice (block of tonic seizure); format: in vivo, mouse (male CD-1); conditions: intraperitoneal, male CD-1 mice
Protocol: This procedure is used as to predict anticonvulsant activity of a test compound in vivo by its ability to block a full tonic seizure induced by a supramaximal electroshock stimulation as an indication of efficacy in preventing grand mal seizures. Male CD-1 mice (Charles River) weighing 18-30 grams were housed in accordance with the "NIH Guide to Care and Use of Laboratory Animals" (National Institutes of Health Care Publication 85-23, revised 1985) with a 12 hour light/dark cycle and free access to food and water. On the day of testing, animals are brought to the laboratory and randomly assigned to groups of six for the time course experiments and to test groups of ten for the dose-response experiments. The apparatus used for the test was the Wahlquist Electroshock Stimulator (Model H), which has a power source of 120 volts ac. A current of 15.5 mA lasting for 300 msec was delivered by placing the terminals of the stimulator across the eyes of the animal. This stimulus results in a tonic seizure, defined as a brief period of hindlimb flexion followed by a prolonged period of hindlimb extension. […] Protection is calculated as a normalized percent inhibition relative to a vehicle treated control group. A time course is performed to determine the peak time of drug action and then a dose response performed at the peak time to determine drug potency. Mice are dosed in a randomized fashion using a total of 4 dose groups and one vehicle control group. The ED50 value and 95% confidence limits are calculated by a computerized Litchfield and Wilcoxon analysis. Drugs are prepared dissolved in distilled water and, if insoluble a drop of surfactant is added. Drugs are routinely administered intraperitoneally for this test and given in a dosage volume of 10 ml/kg.

sodium channels = conditions: 25 nM [^3 H]batrachotoxin, rat cortex vesicular preparation, 60 min, 25° C., pH 7.4; read-out: IC50, Inhibition of [^3 H]Batrachotoxin Binding
membrane sodium channels = conditions: Willow and Catterall, 1982; Olsen, 1986; cited from earlier work

## CCCN(c1ccncc1F)n1cc(C)c2ccccc21.Cl [N-(3-Fluoro-4-pyridinyl)-N-propyl-3-methyl-1H-indol-1-amine hydrochloride]
mice; 30 mpk
  percent inhibition (protection), supramaximal electroshock: 50%
mice; 60 mpk
  percent inhibition (protection), supramaximal electroshock: 50%

## CCCN(c1ccncc1F)n1cc(C)c2cc(O)ccc21 [1-[(3-Fluoro-4-pyridinyl)propylamino]-3-methyl-1H-indol-5-ol]
Sodium channels
  IC50: 19 µM

## CCCN(c1ccncc1)n1cc(C)c2ccccc21.O=C(O)/C=C\C(=O)O [3-Methyl-N-propyl-N-(4-pyridinyl)-1H-indol-1-amine maleate]
mice; Mus musculus, ip, at peak time of drug action, read-out: ED50, inhibition of supramaximal electroshock
  ED50: 14.4 mg/kg

## NC(=O)N1c2ccccc2C=Cc2ccccc21 [Carbamazepine]
Membrane sodium channels
  allosteric inhibition of [^3 H]batrachotoxin binding: allosterically inhibit the binding of [^3 H]batrachotoxin to membrane sodium channels
